Assay results as given in patent US20080171709A1, “Pharmaceutical Composition Comprising An Antiviral Agent, An Antitumoral Agent Or An Antiparasitic Agent, And An Active Agent Selected Among Carveol, Thymol, Eugenol, Borneol,And Carvacrol” (priority 2005, published 2008).
≈ marks a conversion by molar mass, not a printed value. Where two headings read alike, the source gives them in different places.

Key:
[1] = test system: HEP (human larynx carcinoma) cell line; test: MTT cytotoxicity on HEP cell line; assay type: cell-based
Experimental: (§1) […] tests were carried out on HEP (human larynx carcinoma), BSR (hamster kidney carcinoma) and P815 (murin mastocytoma) cell lines cultivated on DMEM medium (Dulbecco's modified eagles medium) supplemented with 5% of fetal bovine serum (Gibco BRL, France), 1% of penicillin- streptomycin-neomycin, 0.2% of sodium bicarbonate. These percentages are given as ratio of the weight to the global volume of the medium.
(§2) In these compositions, excipient is agar solution.
(§3) IC50 have been determined.

[2] = test system: BSR (hamster kidney carcinoma) cell line; test: MTT cytotoxicity on BSR cell line; assay type: cell-based; details: Mesocricetus auratus, read-out: IC50 (concentration inducing cytotoxicity for 50% of treated tumor cells)
Experimental: as §1, §2, §3

[3] = test system: P815 (murin mastocytoma) cell line; test: MTT cytotoxicity on P815 cell line; assay type: cell-based; details: Mus musculus, P815, read-out: IC50 (concentration inducing cytotoxicity for 50% of treated tumor cells)
Experimental: as §1, §2, §3

[4] = test system: HEP, BSR and P815 cell lines; test: cells
Experimental: as §1, §2, §3

[5] = read-out: IC50 (concentration inducing cytotoxicity for 50% of treated tumor cells)

IC50 ([4]; Mus musculus, P815, read-out: IC50 of doxorubicin used alone) [µg/mL] | SMILES | IC50 [1, 5] [µg/mL] | IC50 [2] [µg/mL] | IC50 [3] [µg/mL] | cytotoxic effects towards cell lines at the concentration used in the tested compositions [4] | IC50 ([1]; read-out: IC50 (concentration inducing cytotoxicity for 50% of treated tumor cells), HEP, carvacrol, thymol or carveol alone) [µg/mL] | IC50 ([2]; BSR, carvacrol, thymol or carveol alone) [µg/mL]
– | C=C(C)C1CC=C(C)C(O)C1 (mixture of isomers) [Carveol, carveol] | 400 | 400 | 400 | without any cytotoxic effects | – | –
– | Cc1ccc(C(C)C)cc1O [Carvacrol, carvacrol] | – | – | 300 (≈ 2000 µM) | without any cytotoxic effects | 300 (≈ 2000 µM) | 300 (≈ 2000 µM)
15 to 25 (≈ 27.6 to 46 µM) | COc1cccc2c1C(=O)c1c(O)c3c(c(O)c1C2=O)C[C@@](O)(C(=O)CO)C[C@@H]3O[C@H]1C[C@H](N)[C@H](O)[C@H](C)O1 [Doxorubicin, doxorubicin, reference compound] | 20 (≈ 36.8 µM) | 25 (≈ 46 µM) | 15 (≈ 27.6 µM) | – | – | –
– | Cc1ccc(C(C)C)c(O)c1 [Thymol, thymol] | 300 (≈ 2000 µM) | 300 (≈ 2000 µM) | 300 (≈ 2000 µM) | without any cytotoxic effects | – | –
